Source: article PMC8164609 (Environmental Science and Pollution Research International, 2021)
Where “and” joins values, the source holds several entries; their conditions need not be identical. Identical values can stand only once. Like-named read-outs stand apart in the source and are kept apart here.

Experiments:
MCF-7 cells [1] = test: LDH cytotoxicity test; conditions: 24 h, up to 10^−4 M
Protocol: Cytotoxicity was assessed by lactate dehydrogenase (LDH) release. For LDH measurement, Pierce LDH Cytotoxicity Assay Kit (Thermo Scientific, Rockford, USA) was used. MCF-7 cells were seeded at 2.8×10^5 in a transparent 96-well plate, and corner cells of the plate were filled with PBS to prevent the edge effect. SF medium containing DMEM without phenol red, 1% charcoal-stripped FBS, and 4 mM L-glutamine were used for this assay. Plates were incubated for 24 h, and then the cells were treated with test compounds at concentrations ranging from 10^−14 to 10^−4 M or vehicle for another 24 h. On day 3, culture supernatant was collected in a separate 96-well plate, and the assay was continued according to the manufacturer’s instructions. Final absorbance was measured with the microplate reader at 490 and 680 nm. […] Vehicle control was 0.1% EtOH or DMSO. All the exposures were in triplicate, and the experiment was carried out twice.

S. cerevisiae BMA64/luc = conditions: values higher than 2 are considered toxic
Protocol: Yeast bioluminescent assay was performed as previously described (Omoruyi and Pohjanvirta [2018]). Two recombinant yeasts, Saccharomyces cerevisiae BMAEREluc/ERα and Saccharomyces cerevisiae BMA64/luc, were kindly provided by Dr. Johanna Rajasärkkä, Department of Food and Environmental Sciences, Faculty of Agriculture and Forestry, University of Helsinki. In the BMAEREluc/ERα, human ERα is expressed. After estrogen-like chemicals bind to ERα, the dimerized receptor binds to a specific DNA sequence called estrogen response element (ERE), in the promotor region of the luc reporter gene, inducing its expression. In BMA64/luc, the luciferase is expressed constitutively, and this strain can be used for the evaluation of cytotoxicity of test compounds.
Both strains were revived from glycerol stock solution on agar and broth forms of synthetic complete medium supplemented with the required amino acids. After the absence of contamination was confirmed by observing single colonies’ morphology on agar plate, approximately 10 μL of cultured yeasts in broth was transferred to 4 mL of synthetic defined (SD) medium supplemented with the required amino acids. The culture was incubated at 30°C on a shaker incubator (200 rpm). After 24-h incubation, the culture was diluted with SD broth to reach the optimal density (OD600) of 0.4 CFU/mL. Subsequently, the culture was incubated in the same incubation condition until the OD600 reached 0.6–0.7 CFU/mL.
Next, 90 μL of cultured yeasts containing 1:20 luciferin solution (0.042 g luciferin dissolved in 9.75 mL of 0.2 M trisodium citrate, and 5.525 mL of 0.2 M citrate, pH 5) was pipetted into every well of a white 96-well flat-bottom plate, and 10 μL of test compounds in a defined concentration range (diluted in 5% EtOH) were added. The plate was incubated at 30°C for approximately 2.5 h, and was then shaken briefly. The luminescence measurement was performed with Luminoskan Ascent microplate luminometer (Thermo Labsystems) using the recommended settings as follows: 1000 ms integration time, single measurement mode, shaking at 60 rpm for 5 s prior to measurement.
Each concentration of test compounds and controls in the assay was tested in triplicate, and the experiment was performed twice.
* The Correction Factor is the luminescence of the strain BMA64/luc with blank solvent divided by the luminescence of the control strain with the sample. Values higher than 2 are considered toxic (Leskinen et al. 2005).
* The Correction Factor is the luminescence of the strain BMA64/luc with blank solvent divided by the luminescence of the control strain with the sample. Values higher than 2 are considered toxic (Leskinen et al. 2005). […] Each experiment was performed in triplicate.

estrogen receptor = target: estrogen receptor; set-up: method as in Axon et al. [2012]; conditions: reporter gene construct in human ERα-positive MCF-7 cells; ref Axon et al. [2012]; read-out: EC50 concentration for estrogen receptor activation; cited from earlier work
MCF-7 cells [2] = test: In vitro micronucleus assay for cytokinesis block; type: cell-based, human; conditions: 24 h; for Micronuclei per 1000 binucleated cells, Replicates: single replicate values
Protocol: The genotoxicity of EEDCs to MCF-7 cells was assessed by the in vitro micronucleus assay for cytokinesis block. MCF-7 cells were seeded at a density of 5×10^4/well in a 12-well plate in SF medium containing DMEM, 7% charcoal-stripped FBS and 4 mM L-glutamine. These cells were treated with test compounds or the positive control for 24 h. Then, cells were washed twice with PBS, treated with 2 μg/mL cytochalasin B, and incubated for 1.5–2 normal cell cycle lengths (~24 h for MCF-7 cells). Finally, cells were washed with PBS and fixed with 4% paraformaldehyde for 10–15 min (in PBS, pH 6.9). Before staining cells with 5% Giemsa stain for 20 min, plates were washed again with PBS and dried. The frequency of micronuclei per 1000 binucleated cells was counted for each well, and the ratio of micronucleus frequency in treated vs. control cells was defined as fold induction. Cells in mitosis were omitted.

MCF-7 cells [3] = test: MCF-7 cell proliferation assay (MTT reduction); type: cell-based, human; conditions: MCF-7 cells, MTT
Protocol: MCF-7 cell line which is sensitive to estrogen (ERα^+) was kindly provided by Dr. Sari Tojkander (Department of Veterinary Biosciences, Faculty of Veterinary Medicine, University of Helsinki). Cells were usually grown in T25 or T75 flasks containing DMEM with or without phenol red and supplemented with 7–10% FBS and 4 mM L-glutamine at 37°C in 5% CO2/95% humidified atmosphere. In order to eliminate the disturbing effect of hormones usually present in FBS, cell culture medium supplemented with commercially available charcoal-stripped FBS and 4 mM L-glutamine (SF medium) was used for experiments.
The effect of EEDCs on the proliferation of MCF-7 cells was assessed as previously described by measuring the capacity of the cells in each well to reduce MTT reagent (Van Meeuwen et al. [2007]). Approximately 5000 cells/200 μL of SF medium containing DMEM without phenol red, 5% charcoal-stripped FBS, and 4 mM L-glutamine were seeded per well in a 96-well cell culture plate. On day 2, cells were treated with the SF medium containing test compounds or vehicle. The final concentration of the solvents DMSO and EtOH was lower than 0.1%. On day 5, the SF medium containing test compounds or vehicle were refreshed. On day 8, cells were washed with PBS twice and then incubated with the SF medium containing 1 mg/mL MTT reagent for 1 h. The ability of MCF-7 cells to reduce MTT was measured at the reference wavelength of 595 nm using a microplate reader (Multiskan Ascent, Thermo Fisher Scientific). All the exposures were in triplicate.
The dose-response curves of test samples were plotted against logarithmic-transformed concentrations.

SMILES: O=C([O-])C1=NN(c2ccc(S(=O)(=O)[O-])cc2)C(=O)C1N=Nc1ccc(S(=O)(=O)[O-])cc1.[Na+].[Na+].[Na+] (stereo not shown) [tartrazine]
- maximum level of cytotoxicity (LDH release) (MCF-7 cells [1]): less than 2.5%
- Correction Factor (S. cerevisiae BMA64/luc; 5% DMSO, 10^−4 M): 3.05±0.70
- Correction Factor (S. cerevisiae BMA64/luc; 5% DMSO, 10^−6 M): 2.77±0.44
- Correction Factor (S. cerevisiae BMA64/luc; 5% DMSO, 10^−8 M): 2.05±0.32
- Correction Factor (S. cerevisiae BMA64/luc; 5% DMSO, 10^−10 M): 2.60±0.54
- Correction Factor (S. cerevisiae BMA64/luc; 5% DMSO, 10^−12 M): 3.09±0.57
- Correction Factor (S. cerevisiae BMA64/luc; 5% DMSO, 10^−14 M): 3.43±0.66
- Correction Factor (S. cerevisiae BMA64/luc; 5% ethanol, 10^−4 M): 0.99±0.08
- Correction Factor (S. cerevisiae BMA64/luc; 5% ethanol, 10^−6 M): 0.94±0.12
- Correction Factor (S. cerevisiae BMA64/luc; 5% ethanol, 10^−8 M): 0.95±0.09
- Correction Factor (S. cerevisiae BMA64/luc; 5% ethanol, 10^−10 M): 1.36±0.30
- Correction Factor (S. cerevisiae BMA64/luc; 5% ethanol, 10^−12 M): 1.10±0.26
- Correction Factor (S. cerevisiae BMA64/luc; 5% ethanol, 10^−14 M): 1.14±0.23
- EC50 (estrogen receptor): 160 nM
- Fold (micronucleus frequency treated vs. control) (MCF-7 cells [2]; 10^−7 M): 2.81
- Micronuclei per 1000 binucleated cells, Average (MCF-7 cells [2]; 10^−7 M): 29 per 1000 binucleated cells
- Micronuclei per 1000 binucleated cells, Replicates (MCF-7 cells [2]; 10^−7 M): 29 per 1000 binucleated cells and 31 per 1000 binucleated cells and 27 per 1000 binucleated cells
- Fold (micronucleus frequency treated vs. control) (MCF-7 cells [2]; 10^−8 M): 2.10
- Micronuclei per 1000 binucleated cells, Average (MCF-7 cells [2]; 10^−8 M): 21.67 per 1000 binucleated cells
- Micronuclei per 1000 binucleated cells, Replicates (MCF-7 cells [2]; 10^−8 M): 21 per 1000 binucleated cells and 19 per 1000 binucleated cells and 25 per 1000 binucleated cells
- efficacy (maximum induction of cell growth) compared with 17β-estradiol (MCF-7 cells [3]): about one third
- EC50 (MCF-7 cells [3]; hormone-depleted medium, read-out: EC50 (proliferative effect)): 7.46 nM
